Measured values as given in US10316008B2, “KCNQ potassium channel agonist, and preparation method therefor and use thereof” (SHANGHAI INSTITUTE OF MATERIA MEDICA, CHINESE ACADEMY OF …, priority 2014, dated 2019).
Where a name gives a salt, the structure may show the parent alone.

Assays:
[1] = target: T1, KCNQ2 homotetramer channel (Homo sapiens, UniProt O43526); assay: KCNQ2 channel dose-response curve in CHO-K1 cells transfected with KCNQ2 plasmid; type: cell-based
T1 construct: expressed in transfected cells; host or cells: CHO-K1
T1 sequence (O43526 whole entry): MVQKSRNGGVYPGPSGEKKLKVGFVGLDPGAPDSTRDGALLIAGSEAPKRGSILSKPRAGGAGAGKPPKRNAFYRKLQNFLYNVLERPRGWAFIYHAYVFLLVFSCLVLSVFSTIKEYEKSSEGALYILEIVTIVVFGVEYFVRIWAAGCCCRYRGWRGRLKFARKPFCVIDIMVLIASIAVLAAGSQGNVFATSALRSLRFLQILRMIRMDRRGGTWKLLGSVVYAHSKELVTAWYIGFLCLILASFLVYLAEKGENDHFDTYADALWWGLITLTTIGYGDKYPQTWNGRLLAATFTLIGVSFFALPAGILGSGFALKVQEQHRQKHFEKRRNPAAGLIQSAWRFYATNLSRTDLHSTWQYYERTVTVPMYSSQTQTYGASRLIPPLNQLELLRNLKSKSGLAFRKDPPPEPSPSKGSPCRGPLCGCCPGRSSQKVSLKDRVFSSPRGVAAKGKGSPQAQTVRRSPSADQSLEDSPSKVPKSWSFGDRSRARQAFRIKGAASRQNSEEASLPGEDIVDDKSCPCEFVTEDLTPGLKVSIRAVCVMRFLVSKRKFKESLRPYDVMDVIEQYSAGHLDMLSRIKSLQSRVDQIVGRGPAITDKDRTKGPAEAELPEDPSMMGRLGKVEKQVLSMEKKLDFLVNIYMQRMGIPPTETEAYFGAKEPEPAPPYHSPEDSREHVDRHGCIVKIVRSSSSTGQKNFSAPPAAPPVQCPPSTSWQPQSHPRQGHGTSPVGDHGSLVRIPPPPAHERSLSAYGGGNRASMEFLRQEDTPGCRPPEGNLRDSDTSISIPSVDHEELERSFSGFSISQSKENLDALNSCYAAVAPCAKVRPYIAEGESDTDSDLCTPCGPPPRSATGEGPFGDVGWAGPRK
Experimental: (§1) The culture medium for Chinese hamster oocytes (CHO-K1) (Culture Collection of Chinese Academy of Sciences): 50/50 DMEM/F-12 (Cellgro, Manassas, Va.), added with 10% fetal bovine serum (FBS) (Gibco, Australia) and 2 mM L-glutamic acid (Invitrogen). Expression of KCNQ channels: 24 h before transfection, CHO-K1 spreaded on a dish with a diameter of 60 mm. Lipofectamine 2000™ agent (Invitrogen) was used for Transfection according to the protocol thereof. GFP (green fluorescent protein) was cotransfected to be used as a indication of successful converting into KCNQ plasmid.
(§2) Whole-cell voltage-clamp recording was performed on an Axopatch-200B amplifier (Molecular Devices, Sunnyvale, Calif.) at room temperature. The electrode was made by drawing borosilicate glass capillary (World Precision Instruments, Sarasota, Fla.). The electric resistance of the electrode filled with an intracellular fluid is 3 to 5 MΩ. The composition of the intracellular fluid (1 L) was as follows: 145 mM KCl(Sigma), 1 mM MgCl2(Sigma), 5 mM EGTA(Sigma), 10 mM HEPES(Sigma) and 5 mM MgATP(Sigma) (pH was adjusted to 7.3 with KOH). During the recording, an extracellular fluid was continuously perfused by using a BPS perfusion system (ALA Scientific Instruments, Westburg, N.Y.). The composition of the extracellular fluid (1 L) was as follows: 140 mM NaCl(Sigma), 5 mM KCl(Sigma), 2 mM CaCl2(Sigma), 1.5 mM MgCl2(Sigma), 10 mM HEPES(Sigma) and 10 mM glucose(Sigma) (pH was adjusted to 7.4 with NaOH). Electric signal was filtered at 1 kHz and further converted into digital signal by using pClamp 9.2 software (Molecular Devices, Sunnyvale, Calif.) in DigiData 1322A. Series resistors compensate 60 to 80%. Up to date, multivoltage scheme was generally adopted, wherein the clamp voltage was set at −80 mV, stimulating voltage was a gradient voltage from −90 mV to 60 mV with interval of 10 mV, and the stimulating time for each voltage was 2000 ms.
The experimental procedure was the same as that in Electrophysiological Example 1. […]

[2] = system: KCNQ potassium channel; assay: Whole-cell voltage-clamp recording in CHO-K1 cells transfected with KCNQ plasmid; type: cell-based; details: for I/I0: current enhancement factor, −10 mV testing voltage, compound concentration 10 μM, >1 activating, <1 inhibiting; for ΔV1/2: shift of V1/2, negative sign = left-ward shift of current activation curve, compound 10 μM, CHO-K1 cells
Experimental: as §1, with “Expression of KCNQ channels: 24 h before transfection, CHO-K1 spreaded on a dish with a diameter of 60 mm.” left out
as §2, with “The composition of the intracellular fluid (1 L) was as follows: 145 mM KCl(Sigma), 1 mM MgCl2(Sigma), 5 mM EGTA(Sigma), 10 mM HEPES(Sigma) and 5 mM MgATP(Sigma) (pH was adjusted to 7.3 with KOH).” left out, “Electric signal was filtered at 1 kHz and further converted into digital signal by using pClamp 9.2 software (Molecular Devices, Sunnyvale, Calif.) in DigiData 1322A.” left out
V1/2 is the voltage at which 50% of cells were activated, ΔV1/2 is the shift amount of V1/2, negative sign (−) represents a left-ward shift of the current activation curve. I/I0 represents the current enhancement factor, wherein, I0 is the maximum induced current produced under stimulation of −10 mV testing voltage after administrating cells with blank extracellular fluid, I is the maximum induced current produced under stimulation of −10 mV testing voltage after administrating the drug (the compound concentration was 10 μM), I/I0>1 represents activating activity, and I/I0<1 represents inhibiting activity. N is the number of tested cells. NT represents non-tested.

[3] = Rotarod experiment, motor coordination ability (acute neurotoxicity); type: in vivo, KM mice; details: both sexes, KM, mouse, in vivo; mice, oral perfusion, Rotarod 30 mins after administration; read-out: TD50 (50% acute neurotoxicity dose)
Experimental: YLS-4C Rotarod system was used in the experiment, wherein the diameter of the rod was 3 cm and the rotate speed was set at 6 rpm. Healthy KM mice (SPF level) were selected, wherein male and female were equal, the body weight was 18 to 22 g. One day before experiment, the mice were place on the rotarod for training and screening. The tail tip of mice was held to make them creep on the rotarod during the training. […] The mice that jumped on the rotarod or griped the rotarod were weed out. In addition, three time periods were set with 1 min for each. […] The qualified mice were randomly caged according to the gender, and allowed to eat and drink freely.
On the day of the experiment, each compound to be tested was freshly formulated by the same method as described in MES experiment. If the compound was not sufficiently suspended, the suspension was further mixed by ultrasonication for 20 min so as to make the compound sufficiently suspended. […] 30 mins after administration, Rotarod experiment was performed and the experiment parameters were the same as the above. The number of mice that fell off from the rorarod was recorded, and the influence of each compound on motor coordination ability of mice was analyzed. The curve for dose of each compound verse motor deficit (percentage) of mice for each compound was obtained according to the analysis of Graphpad Prism 5 software and was shown in FIG. 4.

| SMILES | EC50 ([1]; FIG. 1, Boltzmann fit, read-out: EC50) [nM] | agonistic activity on KCNQ2 homotetramer channel relative to RTG ([1]; fold of RTG) | I/I0 [2] | ΔV1/2 [2] [mV] | TD50 at 30 min [3] [mg/kg] |
| --- | --- | --- | --- | --- | --- |
| C#CCN(Cc1ccc(F)cc1)c1cc(C)c(NC(=O)OC)c(C)c1 [Compound K43, methyl 4-(N-parafluorobenzyl-N-propargyl-amino)-2,6-dimethylphenylaminoformate] | 1.53 | more than 800 times |  |  |  |
| C#CCN(Cc1ccc(F)cc1)c1ccc(NC(=O)OC)c(C)c1 [K41•HCl] |  |  | 4.8 ± 0.73 | −23.28 ± 1.37 | 103 |
| C#CCN(Cc1ccc(F)cc1)c1cc(C)c(NC(=O)OC)c(C)c1.Cl [K43•HCl, methyl 4-(N-parafluorobenzyl-N-propargyl-amino)-2,6-dimethylphenylaminoformate hydrochloride] |  |  | 4.75 ± 1.29 | −38.52 ± 1.67 | 152 |
